Common to all, as to type: nucleic-acid assay
Test [1] has as its system Nucleic Acid. Briefly: Compound was measured for the inhibition of DNA cleavage against […] plasmid in the presence of 0.2 M sodium dodecyl sulfate(SDS).
For test [2], the system named is Nucleic Acid. Briefly: The C50 value refers to the concentration of compound required to displace 50% of the ethidium bromide from the DNA. The following applies: Bos taurus.
The test system of test [3] is Nucleic Acid. The experiment in a line: Compound was measured for the inhibition of DNA cleavage against […] plasmid in the presence of 2M NaCl.
Test [4] relates to Nucleic Acid. The experiment in a line: Compound was measured for the inhibition of DNA cleavage against […] plasmid in the presence of 0.2 M sodium dodecyl sulfate (SDS).

For `CCc1c(CC)c2cc3nc(cc4[nH]c(c(C)c4CC)c4[nH]c(cc5nc(cc1[nH]2)C(CCC(=O)NCCNCCN)=C5C)c(CC)c4C)C(C)=C3CCC(=O)NCCNCCN`, the inhibition turned out to be 47% in the test with Nucleic Acid [1] and 87% with Nucleic Acid [3]. The same compound showed a C50 in the test on Nucleic Acid [2] of 0.127 µM.

In the case of `NCCN(CCN)CCN`, in the test on Nucleic Acid [2], the C50 turned out to be 28 µM.

Consider `CCC1=C(CC)c2cc3[nH]c(cc4[nH]c(c(C)c4CC)c4[nH]c(cc5nc(cc1n2)C(CCC(=O)NCCOCCOCCN)=C5C)c(CC)c4C)c(C)c3CCC(=O)NCCOCCOCCN`, for which the inhibition in the test with Nucleic Acid [1] is 31%; in the test on Nucleic Acid [3], 66%. In the test with Nucleic Acid [2], this compound registered a C50 of 0.062 µM.

The compound `CCc1c(CC)c2cc3nc(cc4[nH]c(c(C)c4CC)c4[nH]c(cc5nc(cc1[nH]2)C(CCC(=O)N(CCO)CCO)=C5C)c(CC)c4C)C(C)=C3CCC(=O)N(CCO)CCO` yielded a C50 with Nucleic Acid [2] of 1.2 µM. Further, the inhibition came out at 100% in the test on Nucleic Acid [4] and 92% with Nucleic Acid [3].

For `CCc1c(CC)c2cc3nc(cc4[nH]c(c(C)c4CC)c4[nH]c(cc5nc(cc1[nH]2)C(CCC(=O)NCCN(CCN)CCN)=C5C)c(CC)c4C)C(C)=C3CCC(=O)NCCN(CCN)CCN`, the inhibition in the test on Nucleic Acid [1] stood at 41%; in the test on Nucleic Acid [3], 93%. The C50 in the test with Nucleic Acid [2] came out at 0.114 µM.
